Laboratory results as given in ChEMBL document CHEMBL1201862, “PubChem BioAssay data set” (2004).
Calls of active or inactive are those of the source.

What was measured:
[1] = Trypanosoma cruzi growth suppression in host cells – NIH3T3 host cells, beta-gal luminescence, confirmation (AID 2044); type: functional, cell-based;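 also: intracellular parasites grown in NIH/3T3 mouse fibroblasts as host cells; luminescent beta-galactosidase reporter signal from transgenic T. cruzi replicating inside host cells; inhibitors lower the luminescence signal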
[2] = NIH3T3 cell viability loss – ATP luminescence, mouse fibroblasts, counter-screen, dose response (AID 2010); type: functional, cell-based;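 also: cells exposed to compound for about 90 hours before reading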
[3] = target: Voltage-dependent T-type calcium channel subunit alpha-1H (Homo sapiens, UniProt O95180); type: functional;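 also: channel activity triggered by adding a high calcium stimulation buffer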
Voltage-dependent T-type calcium channel subunit alpha-1H, sequence (O95180 whole entry): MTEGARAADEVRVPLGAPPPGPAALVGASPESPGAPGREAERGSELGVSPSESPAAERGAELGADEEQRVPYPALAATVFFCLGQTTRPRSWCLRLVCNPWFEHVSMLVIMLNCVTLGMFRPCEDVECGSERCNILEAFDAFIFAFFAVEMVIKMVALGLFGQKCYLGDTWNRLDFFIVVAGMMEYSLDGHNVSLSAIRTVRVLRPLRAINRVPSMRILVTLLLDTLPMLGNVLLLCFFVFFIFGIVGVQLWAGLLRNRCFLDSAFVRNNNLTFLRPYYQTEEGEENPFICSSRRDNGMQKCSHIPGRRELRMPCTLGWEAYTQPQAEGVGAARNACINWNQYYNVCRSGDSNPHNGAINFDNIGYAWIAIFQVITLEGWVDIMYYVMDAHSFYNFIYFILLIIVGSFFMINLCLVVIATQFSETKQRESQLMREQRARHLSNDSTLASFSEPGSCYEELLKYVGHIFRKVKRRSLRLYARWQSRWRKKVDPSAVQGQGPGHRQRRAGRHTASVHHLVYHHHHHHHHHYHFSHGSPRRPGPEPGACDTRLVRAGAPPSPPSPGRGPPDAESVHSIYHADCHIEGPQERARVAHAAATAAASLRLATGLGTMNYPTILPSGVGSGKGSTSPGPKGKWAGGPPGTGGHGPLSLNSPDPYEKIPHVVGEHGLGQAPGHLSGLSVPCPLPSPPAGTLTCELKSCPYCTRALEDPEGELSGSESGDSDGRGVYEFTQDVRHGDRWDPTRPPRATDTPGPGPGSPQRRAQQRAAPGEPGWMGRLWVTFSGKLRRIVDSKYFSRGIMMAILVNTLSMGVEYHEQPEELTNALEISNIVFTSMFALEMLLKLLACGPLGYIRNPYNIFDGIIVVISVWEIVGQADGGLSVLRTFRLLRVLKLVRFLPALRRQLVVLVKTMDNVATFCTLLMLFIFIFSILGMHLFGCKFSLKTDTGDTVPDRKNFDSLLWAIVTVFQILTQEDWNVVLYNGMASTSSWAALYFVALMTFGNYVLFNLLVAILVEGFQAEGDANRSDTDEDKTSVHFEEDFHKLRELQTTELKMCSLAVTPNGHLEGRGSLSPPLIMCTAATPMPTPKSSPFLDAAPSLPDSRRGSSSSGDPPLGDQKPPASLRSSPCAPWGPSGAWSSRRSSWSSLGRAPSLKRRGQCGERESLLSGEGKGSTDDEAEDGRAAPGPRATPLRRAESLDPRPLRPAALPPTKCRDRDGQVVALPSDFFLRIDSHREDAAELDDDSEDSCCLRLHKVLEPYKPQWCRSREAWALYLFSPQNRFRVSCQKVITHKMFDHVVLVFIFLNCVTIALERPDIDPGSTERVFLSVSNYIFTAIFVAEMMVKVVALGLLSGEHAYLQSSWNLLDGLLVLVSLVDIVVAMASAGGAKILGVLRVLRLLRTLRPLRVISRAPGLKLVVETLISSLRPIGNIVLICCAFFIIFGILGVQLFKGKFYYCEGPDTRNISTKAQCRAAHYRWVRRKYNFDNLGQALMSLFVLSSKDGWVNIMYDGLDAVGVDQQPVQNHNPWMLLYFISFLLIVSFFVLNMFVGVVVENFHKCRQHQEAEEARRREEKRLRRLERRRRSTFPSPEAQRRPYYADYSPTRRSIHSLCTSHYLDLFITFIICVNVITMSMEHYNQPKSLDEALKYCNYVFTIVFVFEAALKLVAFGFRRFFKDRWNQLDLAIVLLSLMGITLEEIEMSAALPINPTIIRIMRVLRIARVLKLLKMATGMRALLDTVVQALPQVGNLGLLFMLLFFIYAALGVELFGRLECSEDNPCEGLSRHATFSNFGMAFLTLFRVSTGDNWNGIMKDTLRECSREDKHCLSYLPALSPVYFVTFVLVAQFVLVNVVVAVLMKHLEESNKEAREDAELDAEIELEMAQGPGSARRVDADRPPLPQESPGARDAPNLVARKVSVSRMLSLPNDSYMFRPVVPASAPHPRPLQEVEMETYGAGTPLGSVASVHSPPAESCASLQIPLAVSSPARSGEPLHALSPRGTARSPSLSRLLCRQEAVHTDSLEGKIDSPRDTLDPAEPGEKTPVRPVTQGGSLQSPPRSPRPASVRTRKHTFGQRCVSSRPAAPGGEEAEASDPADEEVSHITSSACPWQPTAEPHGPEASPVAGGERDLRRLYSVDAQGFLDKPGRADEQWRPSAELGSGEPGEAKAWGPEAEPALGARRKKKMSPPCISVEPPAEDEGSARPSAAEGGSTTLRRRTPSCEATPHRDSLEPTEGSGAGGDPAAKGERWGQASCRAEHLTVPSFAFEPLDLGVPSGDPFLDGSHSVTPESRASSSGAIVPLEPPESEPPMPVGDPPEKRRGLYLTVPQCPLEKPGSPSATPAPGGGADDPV

[4] = target: T1, Corticotropin-releasing factor receptor 2/Corticotropin-releasing factor-binding protein (Homo sapiens, UniProt P24387+Q13324); experiment: Dose Response confirmation of uHTS hits for small molecule antagonists of the CRF-binding protein and CRF-R2 receptor complex.; type: functional; conditions: read-out: IC50_Mean
T1 sequence (Q13324 whole entry): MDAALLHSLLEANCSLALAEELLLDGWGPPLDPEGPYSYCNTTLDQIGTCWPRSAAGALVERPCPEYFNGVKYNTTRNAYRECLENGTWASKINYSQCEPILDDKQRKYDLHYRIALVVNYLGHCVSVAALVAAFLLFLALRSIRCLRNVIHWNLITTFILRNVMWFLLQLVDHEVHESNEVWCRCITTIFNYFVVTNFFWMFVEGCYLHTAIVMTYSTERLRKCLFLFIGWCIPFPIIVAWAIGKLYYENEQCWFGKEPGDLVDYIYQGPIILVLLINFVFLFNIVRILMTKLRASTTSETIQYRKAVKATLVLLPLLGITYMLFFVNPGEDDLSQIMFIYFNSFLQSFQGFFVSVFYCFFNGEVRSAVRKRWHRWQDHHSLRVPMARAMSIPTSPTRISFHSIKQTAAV
T1 sequence (P24387 whole entry): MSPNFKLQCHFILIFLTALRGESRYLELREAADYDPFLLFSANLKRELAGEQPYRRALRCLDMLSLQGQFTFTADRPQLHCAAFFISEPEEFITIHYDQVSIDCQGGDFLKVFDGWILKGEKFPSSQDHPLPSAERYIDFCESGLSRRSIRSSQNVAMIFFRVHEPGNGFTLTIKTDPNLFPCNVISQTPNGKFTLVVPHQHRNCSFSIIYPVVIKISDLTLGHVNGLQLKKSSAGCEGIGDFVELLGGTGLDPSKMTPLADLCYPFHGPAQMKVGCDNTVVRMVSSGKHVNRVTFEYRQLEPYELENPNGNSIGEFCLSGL

[5] = target: T1, Corticotropin-releasing factor receptor 2/Corticotropin-releasing factor-binding protein; experiment: activators of CRF receptor 2 with binding protein – uHTS hits, confirmation (AID 602473); type: functional; conditions: read-out: EC50_Mean
Beta-galactosidase = Beta-galactosidase (Escherichia coli, UniProt Q8VNN2); experiment: Dose response counterscreen for EBI2 assay utilizing the enzyme, b-galactosidase.; type: functional
Beta-galactosidase, sequence (Q8VNN2 whole entry): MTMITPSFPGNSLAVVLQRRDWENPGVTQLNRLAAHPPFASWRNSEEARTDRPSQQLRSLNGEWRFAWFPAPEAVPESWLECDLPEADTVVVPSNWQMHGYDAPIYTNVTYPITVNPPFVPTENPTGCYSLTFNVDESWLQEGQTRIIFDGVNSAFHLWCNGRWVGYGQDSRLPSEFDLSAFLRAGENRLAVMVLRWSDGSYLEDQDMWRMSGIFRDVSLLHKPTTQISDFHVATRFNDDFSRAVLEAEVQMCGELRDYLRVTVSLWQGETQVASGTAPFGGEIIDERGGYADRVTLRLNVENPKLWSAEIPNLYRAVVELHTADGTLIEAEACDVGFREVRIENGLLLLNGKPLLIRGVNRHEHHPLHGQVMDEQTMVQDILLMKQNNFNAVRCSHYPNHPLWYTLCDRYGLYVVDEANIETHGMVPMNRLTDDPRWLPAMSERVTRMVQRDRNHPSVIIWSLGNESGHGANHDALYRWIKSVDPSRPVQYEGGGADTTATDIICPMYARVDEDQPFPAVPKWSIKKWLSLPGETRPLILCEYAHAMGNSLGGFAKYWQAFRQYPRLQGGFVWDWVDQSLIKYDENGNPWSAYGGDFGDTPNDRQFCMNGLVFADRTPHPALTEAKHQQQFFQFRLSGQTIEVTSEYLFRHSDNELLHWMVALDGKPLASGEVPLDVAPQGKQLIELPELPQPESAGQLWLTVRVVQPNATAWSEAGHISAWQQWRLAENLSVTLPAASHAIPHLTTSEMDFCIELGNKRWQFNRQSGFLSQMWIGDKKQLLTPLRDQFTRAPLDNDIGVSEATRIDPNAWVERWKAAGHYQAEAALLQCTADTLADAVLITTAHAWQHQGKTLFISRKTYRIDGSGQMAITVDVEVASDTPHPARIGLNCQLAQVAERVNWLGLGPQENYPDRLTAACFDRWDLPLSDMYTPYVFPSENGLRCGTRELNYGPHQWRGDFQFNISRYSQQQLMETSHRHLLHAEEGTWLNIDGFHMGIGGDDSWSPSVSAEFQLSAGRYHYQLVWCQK

[6] = target: Fructose-bisphosphate aldolase (Mycobacterium tuberculosis, UniProt P9WQA3); experiment: Fluorescence-based biochemical high throughput dose response assay for inhibitors of the fructose-bisphosphate aldolase (FBA) of M. tuberculosis.; type: functional
Fructose-bisphosphate aldolase, sequence (P9WQA3 whole entry): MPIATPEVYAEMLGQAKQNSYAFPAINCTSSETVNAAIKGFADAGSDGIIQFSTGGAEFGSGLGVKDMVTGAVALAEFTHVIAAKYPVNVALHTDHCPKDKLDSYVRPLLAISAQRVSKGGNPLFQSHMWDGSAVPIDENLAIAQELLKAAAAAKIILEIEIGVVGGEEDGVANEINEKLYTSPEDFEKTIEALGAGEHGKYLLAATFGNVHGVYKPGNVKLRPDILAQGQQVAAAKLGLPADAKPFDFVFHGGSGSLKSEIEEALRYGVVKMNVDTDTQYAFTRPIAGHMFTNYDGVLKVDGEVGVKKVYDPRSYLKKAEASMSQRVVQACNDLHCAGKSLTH

[7] = target: T2, DNA repair and recombination protein RAD54-like (Homo sapiens, UniProt Q92698); experiment: RAD54 Holliday junction migration blockers – biochemical, fluorescence, cherry-picked samples, dose series, confirmation (AID 651657); type: functional
T2 sequence (Q92698 whole entry): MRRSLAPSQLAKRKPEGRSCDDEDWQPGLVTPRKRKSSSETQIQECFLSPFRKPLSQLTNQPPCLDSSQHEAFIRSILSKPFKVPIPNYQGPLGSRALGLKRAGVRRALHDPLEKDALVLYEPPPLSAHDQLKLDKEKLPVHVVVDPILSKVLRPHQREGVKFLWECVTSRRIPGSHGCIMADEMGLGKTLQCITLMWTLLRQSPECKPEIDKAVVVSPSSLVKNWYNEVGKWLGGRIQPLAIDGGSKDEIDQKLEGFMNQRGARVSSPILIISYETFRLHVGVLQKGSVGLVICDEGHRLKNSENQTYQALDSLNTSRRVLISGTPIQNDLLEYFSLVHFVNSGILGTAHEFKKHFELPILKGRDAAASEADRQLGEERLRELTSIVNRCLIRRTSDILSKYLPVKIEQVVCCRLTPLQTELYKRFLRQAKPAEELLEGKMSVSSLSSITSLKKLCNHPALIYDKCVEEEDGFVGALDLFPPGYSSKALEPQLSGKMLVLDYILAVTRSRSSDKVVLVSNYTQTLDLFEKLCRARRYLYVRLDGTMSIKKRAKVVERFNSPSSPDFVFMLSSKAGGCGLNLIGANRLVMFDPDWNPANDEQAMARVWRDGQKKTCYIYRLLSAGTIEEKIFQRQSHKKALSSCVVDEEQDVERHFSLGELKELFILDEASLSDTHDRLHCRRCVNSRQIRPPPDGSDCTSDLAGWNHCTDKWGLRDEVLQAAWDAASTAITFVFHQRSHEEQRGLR

[8] = target: DNA repair protein RAD52 homolog (Homo sapiens, UniProt P43351); type: functional, biochemical
DNA repair protein RAD52 homolog, sequence (P43351 whole entry): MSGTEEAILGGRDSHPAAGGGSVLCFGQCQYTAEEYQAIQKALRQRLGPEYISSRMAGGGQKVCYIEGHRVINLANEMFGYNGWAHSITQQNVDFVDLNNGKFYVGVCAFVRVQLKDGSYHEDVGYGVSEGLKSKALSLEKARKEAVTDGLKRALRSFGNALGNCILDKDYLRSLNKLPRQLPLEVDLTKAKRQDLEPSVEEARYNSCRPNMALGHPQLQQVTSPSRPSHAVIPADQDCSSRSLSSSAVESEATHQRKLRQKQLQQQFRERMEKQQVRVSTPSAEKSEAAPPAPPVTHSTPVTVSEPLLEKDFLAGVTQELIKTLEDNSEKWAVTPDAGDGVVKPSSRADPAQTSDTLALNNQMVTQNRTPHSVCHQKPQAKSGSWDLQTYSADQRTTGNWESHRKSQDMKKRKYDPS

[9] = target: T3, Heat shock factor protein 1 (Mus musculus, UniProt P38532); experiment: enhancement of HSF1-driven luciferase signal – cell-based, NIH3T3, luminescence, dose retest, confirmation (AID 435004); type: functional;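 also: stress induced by proteasome inhibitor MG132 added 30 min after compound; luciferase reporter driven by HSF1 response element in NIH3T3 cells; actives raise luminescence as potentiators of the MG132 stress response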
T3 sequence (P38532 whole entry): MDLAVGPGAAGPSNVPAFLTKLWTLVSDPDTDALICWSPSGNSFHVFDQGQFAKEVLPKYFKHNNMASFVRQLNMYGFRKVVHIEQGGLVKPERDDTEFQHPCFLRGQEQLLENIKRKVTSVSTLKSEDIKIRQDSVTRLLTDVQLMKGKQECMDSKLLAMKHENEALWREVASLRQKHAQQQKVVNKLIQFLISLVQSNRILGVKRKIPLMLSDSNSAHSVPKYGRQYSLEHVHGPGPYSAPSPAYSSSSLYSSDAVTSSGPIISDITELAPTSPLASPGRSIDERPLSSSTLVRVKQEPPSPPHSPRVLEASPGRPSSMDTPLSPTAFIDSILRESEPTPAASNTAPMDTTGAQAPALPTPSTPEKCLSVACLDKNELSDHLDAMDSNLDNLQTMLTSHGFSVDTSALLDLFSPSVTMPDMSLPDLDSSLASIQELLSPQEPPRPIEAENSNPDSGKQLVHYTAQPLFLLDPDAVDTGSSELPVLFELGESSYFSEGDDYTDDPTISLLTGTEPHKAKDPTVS

[10] = viability loss in CEM21 cells – cell-based, CellTiter-Glo luminescence, cherry-picked, cytotoxicity control for viral fusion inhibitor project, dose response (AID 652042); type: functional;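 also: potency for signal decrease meaning cytotoxicity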
Prothrombin = Prothrombin (Homo sapiens, UniProt P00734); experiment: Thrombin 1536 HTS Dose Response Confirmation. [Related pubchem assays: 1046 (Thrombin 1536 HTS; hits were confirmed in this assay)]; type: functional
H9c2 = experiment: cells; type: functional, cell-based; conditions: Rattus norvegicus, H9c2, Myocardium;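 also: confirmatory concentration-response retest of ultra-high-throughput screening hits for modulation of myocardial damage; cell death induced by hydrogen peroxide oxidative stress; compound pretreatment for 60 min then peroxide exposure for 2 h; potency is for protecting the cells against peroxide damage rather than for killing them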
[11] = A549 cell cytotoxicity, dose response, cytotoxicity control, plate reader, cherry-pick, antagonist series (AID 743412); type: functional, cell-based
[12] = toxicity toward HepG2 liver cells – cell-based, plate reader, cherry-pick, antagonist series, cytotoxicity control, dose response (AID 743416); type: functional
[13] = blockers of bursicon-stimulated LGR2 cAMP reporter – cell-based, HEK293, CRE-luciferase reporter, cherry pick, set 2, dose response (AID 743343); type: functional;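 also: transfected cells were stimulated with diluted bursicon conditioned medium after compound addition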
[14] = blockade of melanocortin 4 receptor signaling – cell-based, plate reader, cherry pick, counter-screen for LGR2 antagonist project, dose response (AID 743444); type: functional;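 also: transfected HEK 293 cells stimulated with alpha-MSH peptide; potency of inhibitors of the alpha-MSH evoked signal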
[15] = general mammalian cell viability loss – inhibitor set, cherry-pick, set 2, cytotoxicity control for miR-122 modulator project, dose response (AID 720697); type: functional, cell-based
cells [16] = type: functional, cell-based
[17] = target: T4, Trace amine-associated receptor 1 (Homo sapiens, UniProt Q96RJ0); experiment: Fluorescence-based cell-based high throughput dose response assay to identify agonists of the human trace amine associated receptor 1 (TAAR1).; type: functional
T4 sequence (Q96RJ0 whole entry): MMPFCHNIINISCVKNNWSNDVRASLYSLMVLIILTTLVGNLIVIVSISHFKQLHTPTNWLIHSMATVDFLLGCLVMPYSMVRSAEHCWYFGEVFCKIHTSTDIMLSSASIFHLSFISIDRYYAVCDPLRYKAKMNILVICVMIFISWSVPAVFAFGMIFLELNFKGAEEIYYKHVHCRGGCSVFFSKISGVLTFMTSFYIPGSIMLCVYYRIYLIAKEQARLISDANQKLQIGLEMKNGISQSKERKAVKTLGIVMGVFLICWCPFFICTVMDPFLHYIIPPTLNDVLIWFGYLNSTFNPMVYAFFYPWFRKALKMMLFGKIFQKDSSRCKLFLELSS

[18] = target: T4, Trace amine-associated receptor 1; experiment: Counterscreen for agonists of the human trace amine associated receptor 1 (hTAAR1): Fluorescence-based cell-based high throughput dose response assay to identify hTAAR1 agonist that also desensitize TAAR1 receptor response.; type: functional
cells [19] = type: functional, cell-based; remark: listed apart in the source
[20] = target: T3, Heat shock factor protein 1; experiment: decrease of HSF1-responsive luciferase luminescence – cell-based, NIH3T3, dose retest, confirmation (AID 2382); type: functional;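 also: NIH3T3 fibroblasts with HSF1-driven luciferase reporter stressed by proteasome inhibitor MG132; luminescence from HSF1-driven luciferase expression after 8 hours of MG132 stress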
[21] = activation of miR-122 Renilla sensor silencing – cell-based, Huh7 psiCHECK-miR122, Renilla luciferase, cherry-picked, dose response (AID 651956); type: functional;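 also: huh7 hepatoma cells stably carrying a psiCHECK-2 miR-122 sensor plasmid; renilla luciferase signal reporting endogenous miR-122 activity after 48 h compound exposure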
[22] = inhibitors of EBV LMP1 NF-kappaB signaling – cell-based, luciferase reporter, luminescence, dry powder, set 2, dose response (AID 624376); type: functional
[23] = Luminescence Cell-Based Dose Confirmation HTS to Identify Activators of 5'UTR Stem-Loop Driven Alpha-Synuclein mRNA Translation in H4 Neuroglioblastoma Cells. [Related pubchem assays: 1829 (Project Summary), 1814 (Primary HTS)]; type: functional
[24] = Luminescence Cell-Based Dose Response HTS to Identify Activators of Luciferase Translation or Activity in H4 […] Cells. [Related pubchem assays: 1829 (Project Summary), 1814 (Primary HTS)]; type: functional
H4 = experiment: Luminescence Cell-Based Dose Response HTS to Identify Activators of 5'UTR Stem-Loop Driven Prion Protein mRNA Translation in H4 Neuroglioblastoma Cells. [Related pubchem assays: 1829 (Project Summary), 1814 (Primary HTS)]; type: functional; conditions: Homo sapiens
[25] = target: T5, Ubiquitin-conjugating enzyme E2 N (Homo sapiens, UniProt P61088); type: functional;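 also: Dose-response confirmation in a TR-FRET assay detecting UBC13-driven polyubiquitin chain formation, inhibition measured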
T5 sequence (P61088 whole entry): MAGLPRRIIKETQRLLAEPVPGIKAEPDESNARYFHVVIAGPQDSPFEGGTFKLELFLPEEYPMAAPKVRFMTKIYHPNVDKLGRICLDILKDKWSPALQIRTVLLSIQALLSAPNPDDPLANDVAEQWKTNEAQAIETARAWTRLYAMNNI

Melanocortin receptor 4 = Melanocortin receptor 4 (Homo sapiens, UniProt P32245); type: functional, cell-based;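 also: Cell-based assay with luminescence read-out, confirmatory dose-response testing for agonist activity of biased ligands at MC4R; human U2OS cells with tagged receptor and beta-arrestin; potency of agonists that increase receptor coupling to beta-arrestin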
Melanocortin receptor 4, sequence (P32245 whole entry, the tested form may be a part): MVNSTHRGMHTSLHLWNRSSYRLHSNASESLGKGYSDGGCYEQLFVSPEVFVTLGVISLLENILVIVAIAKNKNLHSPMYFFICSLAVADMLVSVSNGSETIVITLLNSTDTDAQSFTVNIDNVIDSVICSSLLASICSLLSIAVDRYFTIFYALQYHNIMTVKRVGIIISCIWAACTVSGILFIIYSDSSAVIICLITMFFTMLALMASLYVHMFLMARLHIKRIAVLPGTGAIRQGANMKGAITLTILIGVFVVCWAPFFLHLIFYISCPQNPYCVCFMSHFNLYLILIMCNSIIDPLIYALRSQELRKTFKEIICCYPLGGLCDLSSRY

[26] = blockers of HIV-1 envelope-mediated cell-cell fusion – cherry-pick, dose response (AID 652057); type: functional, cell-based
[27] = blockers of HIV-1 ZM109 envelope-driven cell-cell fusion – HeLa effector, CEM target cells, luciferase, cherry-pick, dose response (AID 652058); type: functional, cell-based;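 also: luciferase signal from HIV-1 Env mediated cell-cell fusion of effector and target cells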
[28] = off-target signal loss in HeLa-CEM21 co-culture – HeLa F-luc CTL cells, cherry-picked, counter-screen for HIV-1 Env fusion inhibitor project, dose response (AID 652040); type: functional, cell-based;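 also: potency for signal decrease marking cytotoxic or nonspecific inhibition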
[29] = HIV-1 AD8 envelope cell-cell fusion blockers – cherry-pick, dose response (AID 652062); type: functional, cell-based;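 also: luciferase signal from cell-cell fusion driven by HIV-1 clade B AD8 Env; potency is for inhibitors of fusion seen as a drop in luminescence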
HEK293 [30] = experiment: cells; conditions: Homo sapiens
HEK293 [31] = experiment: cells; conditions: Homo sapiens; remark: listed apart in the source

Cc1ccc(OCC(=O)N2CCN(c3nnc(-c4ccc(C)cc4)c4ccccc34)CC2)cc1
EC50 [1]: 3.12 µM (active)
EC50 [2]: > 60 µM (not active)
EC50 [3]: 2.35 µM (active)
IC50 [4]: > 47.1 µM (inactive)
EC50 [5]: > 53 µM (inactive)
IC50 (Beta-galactosidase): > 80 µM (inactive)

CN(C)c1ccc(-c2ccnc3c2CC(C)(C(=O)NCc2cccs2)O3)cc1 (stereo not drawn)
IC50 [6]: 0.56 µM (active)

COc1ccc(-c2cc3nc(NCCN4CCCC4)n(C)c(=O)c3s2)cc1OC
AC50 [7]: 11.6 µM (active)
AC50 [8]: 2.43 µM (active)

CCCN(CCC)CCCNC(=S)Nc1ccc2nc(N3CCN(C)CC3)cc(C)c2c1
EC50 [1]: 2.24 µM (active)
EC50 [2]: > 60 µM (not active)
AC50 [7]: 31.9 µM (active)
AC50 [8]: 5.96 µM (active)

CN1CCN(C(=O)c2cc3sc4ccccc4c3s2)CC1
EC50 [9]: > 260 µM (inactive)
IC50 (Beta-galactosidase): > 80 µM (inactive)

CC(NNC(=S)N1CCCCCC1)c1ccc2ccccc2n1 (stereo not drawn)
AC50 [10]: 1.59 µM (active)

COc1cc(C(=O)Nc2nc(-c3cccs3)cs2)cc(OC)c1OC
IC50 (Prothrombin): 2.64 µM (active)
IC50 (H9c2): > 79 µM (inactive)
AC50 [11]: > 52 µM (inactive)
AC50 [12]: > 52 µM (inactive)
AC50 [13]: 23.3 µM (active)
AC50 [14]: 27.7 µM (active)

CCOC(=O)c1ccc(NC(=O)c2ccc(CN3CCOCC3)cc2)cc1
AC50 [15]: 19.3 µM (active)

O=C(CC1C(=O)NCCN1Cc1ccccn1)NCCc1ccccc1F (stereo not drawn)
IC50 (cells [16]): > 29.9 µM (inactive)
EC50 [17]: 2.12 µM (active)
IC50 [18]: 5.23 µM (active)
EC50 (cells [19]): > 29.9 µM (inactive)

Cc1c(O)ccc2c(CC(=O)N[C@@H](Cc3ccc(O)cc3)C(=O)O)cc(=O)oc12
EC50 [20]: > 195 µM (not active)
IC50 [6]: 0.906 µM (active)

COc1cccc(S(=O)(=O)N(C)C[C@@H]2Oc3cc(C4=CCCCC4)ccc3S(=O)(=O)N([C@H](C)CO)C[C@H]2C)c1
AC50 [21]: 30.2 µM (active)
AbsAC35 [22]: 85.29 µM
AC50 [15]: 0.502 µM (active)

Cc1c(CCOC(=O)CC23CC4CC(CC(C)(C4)C2)C3)sc[n+]1CC(=O)c1ccccc1
EC50 [23]: > 120 µM (not active)
EC50 [24]: > 120 µM (not active)
EC50 (H4): > 120 µM (not active)
IC50 [25]: > 20 µM (inactive)
EC50 (Melanocortin receptor 4): > 89.2 µM (inactive)
AC50 [26]: 3.05 µM (active)
AC50 [10]: 16.8 µM (active)
AC50 [27]: 3.85 µM (active)
AC50 [28]: 4.35 µM (active)
AC50 [29]: 12.7 µM (active)
EC50 (HEK293 [30]): > 59.6 µM (inactive)
EC50 (HEK293 [31]): > 59.6 µM (inactive)

Cc1ccccc1C(=O)N[C@H](C(=O)N1CCC[C@H]1C(=O)NCCc1ccccc1Cl)c1ccccc1
IC50 (cells [16]): > 29.9 µM (inactive)
EC50 [17]: 6.12 µM (active)
IC50 [18]: 7.72 µM (active)
EC50 (cells [19]): > 29.9 µM (inactive)
